BindingDB's records for doi:10.1021/jm970856n (Novartis Pharma, 1998)

Target: T1, SHC-transforming protein 2 (Homo sapiens, UniProt P98077)
T1 sequence (P98077 whole entry): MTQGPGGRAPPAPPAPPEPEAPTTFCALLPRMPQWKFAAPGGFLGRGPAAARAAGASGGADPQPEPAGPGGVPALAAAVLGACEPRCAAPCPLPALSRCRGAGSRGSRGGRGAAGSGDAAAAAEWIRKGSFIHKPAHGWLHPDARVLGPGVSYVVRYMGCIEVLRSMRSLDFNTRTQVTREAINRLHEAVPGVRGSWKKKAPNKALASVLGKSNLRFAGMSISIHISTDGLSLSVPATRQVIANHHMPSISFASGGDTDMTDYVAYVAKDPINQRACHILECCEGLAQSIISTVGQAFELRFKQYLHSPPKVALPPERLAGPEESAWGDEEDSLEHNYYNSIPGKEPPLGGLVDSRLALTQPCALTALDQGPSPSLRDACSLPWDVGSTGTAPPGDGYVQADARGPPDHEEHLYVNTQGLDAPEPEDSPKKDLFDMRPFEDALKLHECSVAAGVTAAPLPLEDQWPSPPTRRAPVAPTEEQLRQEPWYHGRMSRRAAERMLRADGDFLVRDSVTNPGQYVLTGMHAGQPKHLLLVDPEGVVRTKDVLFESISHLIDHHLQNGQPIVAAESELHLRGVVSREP
Experiment: Inhibition of binding to SH2 domain of SHC-PTB

With `NC(=O)CC(NC(=O)C1(NC(=O)C(N)Cc2ccc(OP(=O)(O)O)c(N)c2)CCCCC1)C(N)=O` (stereo unspecified) [Phosphoric acid mono-(2-amino-4-{2-amino-2-[1-(1,2-dicarbamoyl-ethylcarbamoyl)-cyclohexylcarbamoyl]-ethyl}-phenyl) ester] the IC50 was > 5 µM.
